The experiment has as its target catalytic domain of human PARP14 (Homo sapiens (Human), UniProt Q460N5). Kind of experiment: Enzymatic assay for inhibition of PARP14 (DELFIA, auto-modification with biotin-NAD). The class given is biochemical. The settings on record: auto-modification of PARP14 by biotin-NAD, 50 nM PARP14, 3 μM biotin-NAD. The method, boiled down: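 DELFIA auto-modification read-out: europium-streptavidin bound to biotin-NAD incorporated onto nickel-captured His-TEV PARP14 catalytic domain. Compound preincubated 30 min, then 50 nM enzyme with 3 μM biotin-NAD reacted 3 h, all at 25 °C, pH 8, then NAD quench. Percent inhibition normalized to rucaparib/DMSO wells, fitted (4- or 3-parameter) for IC50.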

Where a name gives a salt, the structure may show the parent alone. Some results are limits rather than exact numbers.

Sequence of catalytic domain of human PARP14 (Q460N5 1611-1801): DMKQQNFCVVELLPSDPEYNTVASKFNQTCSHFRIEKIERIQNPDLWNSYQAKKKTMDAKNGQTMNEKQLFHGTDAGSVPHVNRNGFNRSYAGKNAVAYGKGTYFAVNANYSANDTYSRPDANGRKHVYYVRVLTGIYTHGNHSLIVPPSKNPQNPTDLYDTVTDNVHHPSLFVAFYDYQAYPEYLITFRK

On to `O=c1[nH]c(CSC2CCOCC2)nc2cccnc12` [Example 36, 2-(((Tetrahydro-2H-pyran-4-yl)thio)methyl)pyrido[3,2-d]pyrimidin-4(3H)-one], for which the half-maximal inhibitory concentration (IC50) (in general, the concentration that inhibits the measured activity by half) was over 10000 nM. `CN(C)C(=O)N1CCC(SCc2nc3cc(NC4CCCC4)cc(F)c3c(=O)[nH]2)CC1` [Example 220, 4-(((7-(Cyclopentylamino)-5-fluoro-4-oxo-3,4-dihydroquinazolin-2-yl)methyl)thio)-N,N-dimethylpiperidine-1-carboxamide] displayed an IC50 of under 1000 nM.

As to `Cc1cccc2c(=O)[nH]c(CS[C@H]3CCC[C@H](CO)C3)nc12` (relative stereo) [Example 70, 2-(((trans-3-(Hydroxymethyl)cyclohexyl)thio)methyl)-8-methylquinazolin-4(3H)-one], the IC50 was 1000 to 10000 nM. In the case of `Cc1cccc2c(=O)[nH]c(CSC3CNC3)nc12` [Example 25, 2-((Azetidin-3-ylthio)methyl)-8-methylquinazolin-4(3H)-one Trifluoroacetate] it was over 10000 nM; in that of `Cc1cccc2c(=O)[nH]c(CSC3CCN(Cc4ccc5c(c4)NC(=O)C5)CC3)nc12` [Example 156, 8-Methyl-2-(((1-((2-oxoindolin-6-yl)methyl)piperidin-4-yl)thio)methyl)quinazolin-4(3H)-one trifluoroacetate], 1000 to 10000 nM; in that of `O=c1[nH]c(CS[C@H]2CC[C@@H](CO)CC2)nc2cc(Nc3cccnc3)ccc12` [Example 106, 2-(((cis-4-(Hydroxymethyl)cyclohexyl)thio)methyl)-7-(pyridin-3-ylamino) quinazolin-4(3H)-one], 1000 to 10000 nM. Molecule `Cc1ccc(Cl)c2c(=O)[nH]c(CSC3CCOCC3)nc12` [Example 34, 5-Chloro-8-methyl-2-(((tetrahydro-2H-pyran-4-yl)thio)methyl)quinazolin-4(3H)-one] gave an IC50 of under 1000 nM.

Take `Cc1cccc2c(=O)[nH]c(CSC3CCN(Cc4ccc(N(C)C)cc4)CC3)nc12` [Example 140, 2-(((1-(4-(Dimethylamino)benzyl)piperidin-4-yl)thio)methyl)-8-methylquinazolin-4(3H)-one trifluoroacetate]: the IC50 was under 1000 nM. As to `CS(=O)(=O)N1CCC[C@@H](Nc2cc(F)c3c(=O)[nH]c(CSC4CCOCC4)nc3c2)C1` [Example 250, (R)-5-fluoro-7-((1-(methylsulfonyl)piperidin-3-yl)amino)-2-(((tetrahydro-2H-pyran-4-yl)thio)methyl)quinazolin-4(3H)-one], the half-maximal inhibitory concentration (IC50) is under 1000 nM. As to `O=c1[nH]c(CSC2CCOCC2)nc2c(Cc3ccccc3)cccc12` [Example 10], the IC50 was over 10000 nM. The molecule `Cc1ncccc1Nc1ccc2c(=O)[nH]c(CSC3CCOCC3)nc2c1` [Example 90, 7-((2-Methylpyridin-3-yl)amino)-2-(((tetrahydro-2H-pyran-4-yl)thio)methyl)quinazolin-4(3H)-one] showed an IC50 of 1000 to 10000 nM. As for `O=c1[nH]c(CSC2CCOCC2)nc2cc(NCc3ccccn3)ccc12` [Example 118, 7-((Pyridin-2-ylmethyl)amino)-2-(((tetrahydro-2H-pyran-4-yl)thio)methyl)quinazolin-4(3H)-one], the IC50 lay within 1000 to 10000 nM.

For the molecule `O=c1[nH]c(CSC2CCNCC2)nc2cc(NC3CCC3)cc(F)c12` [Example 177, 7-(Cyclobutylamino)-5-fluoro-2-((piperidin-4-ylthio)methyl)quinazolin-4(3H)-one Hydrochloride], the IC50 was under 1000 nM. Turning to `CO[C@H]1CC[C@H](SCc2nc3cc(OCC4CCOCC4)cc(F)c3c(=O)[nH]2)CC1` [Example 356], the IC50 is under 1000 nM. The molecule `O=c1[nH]c(CSC2CCOCC2)nc2cc(OCC3CCCO3)cc(F)c12` (centres unmarked) [Example 320, 5-Fluoro-2-(((tetrahydro-2H-pyran-4-yl)thio)methyl)-7-((tetrahydrofuran-2-yl)methoxy)quinazolin-4(3H)-one] had a concentration for half-maximal inhibition (IC50) of under 1000 nM. In the case of `Cc1cccc2c(=O)[nH]c(CSC3CCN(C)CC3)nc12` [Example 14, 8-Methyl-2-(((1-methylpiperidin-4-yl)thio)methyl)quinazolin-4(3H)-one] it was 1000 to 10000 nM; in that of `O=c1[nH]c(CS[C@H]2CC[C@H](O)CC2)nc2cc(NC3CCCC3)cc(C(F)(F)F)c12` [Example 199, 7-(cyclopentylamino)-2-((((1R,4R)-4-hydroxycyclohexyl)thio)methyl)-5-(trifluoromethyl)quinazolin-4(3H)-one], under 1000 nM; in that of `O=c1[nH]c(CSC2CCOCC2)nc2cc(Nc3cncnc3)ccc12` [Example 87, 7-(Pyrimidin-5-ylamino)-2-(((tetrahydro-2H-pyran-4-yl)thio)methyl)quinazolin-4(3H)-one], 1000 to 10000 nM.

For the molecule `Cc1ccc(C(F)(F)F)c2c(=O)[nH]c(CS[C@H]3CC[C@H](O)CC3)nc12` [Example 60, 2-(((trans-4-Hydroxycyclohexyl)thio)methyl)-8-methyl-5-(trifluoromethyl) quinazolin-4(3H)-one], the IC50 is under 1000 nM. In the case of `CC(C)Nc1ccc2c(=O)[nH]c(CSC3CCOCC3)nc2c1` [Example 116, 7-(Isopropylamino)-2-(((tetrahydro-2H-pyran-4-yl)thio)methyl)quinazolin-4(3H)-one] it was under 1000 nM; in that of `Cc1cccc2c(=O)[nH]c(CS[C@H]3CC[C@H](CN(C)C)CC3)nc12` [Example 69, 2-(((trans-4-((Dimethylamino)methyl)cyclohexyl)thio)methyl)-8-methyl quinazolin-4(3H)-one Trifluoroacetate], under 1000 nM; in that of `NC[C@]1(F)CC[C@H](SCc2nc3cc(NC4CCCC4)cc(F)c3c(=O)[nH]2)CC1` [Example 244, 2-(((cis-4-(Aminomethyl)-4-fluorocyclohexyl)thio)methyl)-7-(cyclopentylamino)-5-fluoroquinazolin-4(3H)-one Trifluoroacetate], under 1000 nM. `Cc1cccc2c(=O)[nH]c(CSC3CCN(C[C@H](O)CO)CC3)nc12` [Example 159, (S)-2-(((1-(2,3-Dihydroxypropyl)piperidin-4-yl)thio)methyl)-8-methyl quinazolin-4(3H)-one Trifluoroacetate] yielded an IC50 of 1000 to 10000 nM. With `CN1CC[C@H](COc2cc(F)c3c(=O)[nH]c(CSC4CCOCC4)nc3c2)[C@@H](F)C1` (relative stereo) [Example 326, 5-Fluoro-7-(((trans)-3-fluoro-1-methylpiperidin-4-yl)methoxy)-2-(((tetrahydro-2H-pyran-4-yl)thio)methyl)quinazolin-4(3H)-one], the IC50 was under 1000 nM. To `O=c1[nH]c(CSC2CCOCC2)nc2cnccc12` [Example 37, 2-(((Tetrahydro-2H-pyran-4-yl)thio)methyl)pyrido[3,4-d]pyrimidin-4(3H)-one] belongs over 10000 nM; to `CS(=O)(=O)N1CCC[C@@H](Nc2ccc3c(=O)[nH]c(CSC4CCOCC4)nc3n2)C1` [Example 201, (R)-7-((1-(methylsulfonyl)piperidin-3-yl)amino)-2-(((tetrahydro-2H-pyran-4-yl)thio)methyl)pyrido[2,3-d]pyrimidin-4(3H)-one], under 1000 nM.

In the case of `O=c1[nH]c(CSC2CCNCC2)nc2cc(NC3CCC(F)(F)C3)cc(F)c12` (centres unmarked) [Example 266, 7-((3,3-Difluorocyclopentyl)amino)-5-fluoro-2-((piperidin-4-ylthio)methyl)quinazolin-4(3H)-one], the IC50 was under 1000 nM. As to `CC(Nc1ccc2c(=O)[nH]c(CSC3CCOCC3)nc2c1)c1ccccc1` (centres unmarked) [Example 120, 7-((1-Phenylethyl)amino)-2-(((tetrahydro-2H-pyran-4-yl)thio)methyl)quinazolin-4(3H)-one], the half-maximal inhibitory concentration (IC50) is over 10000 nM. As to `CCC(=O)N[C@H]1CC[C@H](SCc2nc3cc(OCC4CC4)cc(F)c3c(=O)[nH]2)CC1` [Example 378], the IC50 is under 1000 nM. In turn, `CN1CC[C@H](CNc2cc3nc(CSC4CCOCC4)[nH]c(=O)c3c(F)c2F)[C@@H](F)C1` [Example 425] came in with a half-inhibitory concentration (IC50) of under 1000 nM. In turn, `CC(=O)N1CCC(COc2cc(F)c3c(=O)[nH]c(CS[C@H]4CC[C@@](C)(O)CC4)nc3c2)CC1` [Example 417] returned an IC50 of under 1000 nM. `Cc1cccc2c(=O)[nH]c(CSC3CCN(C(=O)CN)CC3)nc12` [Example 166, 2-(((1-Glycylpiperidin-4-yl)thio)methyl)-8-methylquinazolin-4(3H)-one Hydrochloride] registered an IC50 of under 1000 nM. `Cc1cccc2c(=O)[nH]c(CSC3CCC(N(C)C)CC3)nc12` (centres unmarked) [Example 21, 2-(((4-(Dimethylamino)cyclohexyl)thio)methyl)-8-methylquinazolin-4(3H)-one] displayed an IC50 of under 1000 nM.

On to `Cc1cccc2c(=O)[nH]c(CSCC3CCOCC3)nc12` [Example 12, 8-Methyl-2-((((tetrahydro-2H-pyran-4-yl)methyl)thio)methyl)quinazolin-4(3H)-one], for which the half-inhibitory concentration (IC50) lay in the range of 1000 to 10000 nM.

With `O=c1[nH]c(CSC2CCOCC2)nc2cc(N[C@H]3CC[C@@H](N4CCOCC4)CC3)cc(F)c12` [Example 234, 5-Fluoro-7-((cis-4-morpholinocyclohexyl)amino)-2-(((tetrahydro-2H-pyran-4-yl)thio)methyl)quinazolin-4(3H)-one Trifluoroacetate], the concentration for half-maximal inhibition (IC50) was in the range of 1000 to 10000 nM. `Cc1cc(Cl)cc2c(=O)[nH]c(CSC3CCOCC3)nc12` [Example 44, 6-Chloro-8-methyl-2-(((tetrahydro-2H-pyran-4-yl)thio)methyl)quinazolin-4(3H)-one] showed an IC50 of under 1000 nM. Take `Cc1cccc2c(=O)[nH]c(CSC3CCN(C[C@@H]4CCCN4)CC3)nc12` [Example 161, (S)-8-Methyl-2-(((1-(pyrrolidin-2-ylmethyl)piperidin-4-yl)thio)methyl) quinazolin-4(3H)-one Hydrochloride]: the IC50 was 1000 to 10000 nM. To `Cc1cccc2c(=O)[nH]c(CSC3CCN(C(=O)CCN(C)C)CC3)nc12` [Example 168, 2-(((1-(3-(Dimethylamino)propanoyl)piperidin-4-yl)thio)methyl)-8-methyl quinazolin-4(3H)-one] belongs 1000 to 10000 nM.
